Laboratory results reported in patent US10349662B2, “Insecticidal compositions and methods of using the same” (priority 2011, dated 2019).
In brackets after ≈: the same amount, converted by molar mass. Like-named read-outs stand apart in the source and are kept apart here.

Tests used:
[1] = system: Culex quinquefasciatus mosquitoes; experiment: Topical bioassay on adult female Culex quinquefasciatus mosquitoes (knockdown 1 h, mortality 24 h; Colby calculation for combinations); assay type: in vivo
Aedes aegypti mosquitoes = experiment: Topical bioassay on adult female Aedes aegypti mosquitoes (knockdown 1 h, mortality 24 h; Colby calculation for combinations); assay type: in vivo
Source text: Components of a composition can have a synergistic or additive effect on insecticidal activity. Components have an additive effect when the effect of the combination is equal to the sum of the effects of each individual component. In contrast, components have a synergistic effect when the effect of the combination exceeds the sum of the effects of the components when applied individually. The effect (E) of a combination of two compounds may be calculated using the Colby formula (1) (S. R. Colby, “Calculating Synergistic and Antagonistic Responses of Herbicide Combinations”, Weeds 1967, 15, 20-22):
If the actual insecticidal kill rate is the calculated value (E), then the action of the combination is additive. If the actual insecticidal kill rate exceeds the calculated value (E), then the action of the combination is super-additive, that is, a synergistic effect is present. If the insecticidal kill rate is lower than the calculated value (E), then the action of the combination is considered antagonistic.
Adult female Aedes aegypti mosquitoes were segregated in 18″×18″ screen cages based on date of eclosion, therefore the exact age of the mosquitoes were known for bioassays.
Ten female mosquitoes, aged four to six days after eclosion, were aspirated out of their respective cage and into a small glass jar. The mosquitoes were then anesthetized with CO2 gas for 30 seconds. After the adults were anesthetized, they were quickly placed on a plastic platform for treatment application. Treatments were serially diluted (using a BrandTech Scientific Transferpette S pipette (100-1000 μL), labeled centrifuge tubes, and a vortex mixer) from stocks of insecticides using reagent grade acetone as the diluent to concentrations as indicated for each treatment solution. A treatment solution may contain additional ingredients as indicated for each study.
Using a Hamilton PB00-1 Repeating Dispenser with a Hamilton 25 Microliter Syringe, 0.5 μL of each treatment solution was applied to the thorax of each mosquito. Immediately following the application of the treatment, the mosquitoes were gently transferred into a clean paper cup and covered with screen. The mesh screen prevented the mosquitoes from escaping and allowed the specimens to be viewed for ratings. A cotton ball soaked with 10% sucrose solution was inserted into a side hole of each cup for hydration and nourishment. Each treatment variable in the study was replicated three times using separate cups for each replication.
The untreated controls treatments were anesthetized for 30 seconds and gently transferred to the paper cups. The acetone treated control was treated exactly as described above except that the solution applied to each mosquito was undiluted acetone.
The condition of the mosquitoes in each cup was recorded at one hour and 24 hours after initial treatment. The condition classifications used were (1) alive and flying, (2) alive and unable to fly, or (3) dead. The percent mortality for each treatment was calculated by summing the mortalities of each replicate then calculating the percent dead from the total number of mosquitoes.
Where indicated, the mortality data were subjected to probit analysis using the Statistical Analysis System Version 9.1 program PROC PROBIT (SAS Institute (2003) PROC user's manual, version 9.1. SAS Institute, Cary, N.C.).

Cytochrome P450 enzyme = experiment: P450 activity assay (7-ethoxycoumarin, fluorescence); assay type: biochemical, A. aegypti; conditions: FIG. 2
Protocol: Cytochrome P450 enzyme solution was prepared by homogenizing 15, 3 to 5 day old, A. aegypti females and centrifuging the mixture at 10,000 g for 1 minute. The pellet was discarded, and the supernatant was used as the P450 enzyme stock solution. 10 μL of this P450 enzyme stock and 90 μL of 7-ethoxycoumarin solution (0.526 mM of 7-ethoxycoumarin, 1.11 mM NADPH, 0.05 mM phosphate buffer) was added to each well of the micropipette plate to begin the reaction. During the reaction, the micropipette plate was covered with aluminum foil to prevent photo-bleaching. The reaction was incubated at 30° C. for 4 hours. The reaction was stopped by adding 30 μL of stop solution (0.1 mM glycine, pH 10.4, 50% ethanol). The micropipette plate was then analyzed by measuring the fluorescence (Emission=460 nm, Excitation=360 nm) of each well. High fluorescence was directly related to product, and thus indicated a high level of P450 activity.

[2] = cited from earlier work

In the case of `C=C(C)C1CC=C(C=O)CC1` (stereo not drawn) [Perillaldehyde, perillaldehyde], the 1 hour knockdown ([1]; 2%) is reported as 33%, the “% MORTALITY AFTER 24 HRS” value ([1]; 2%) is reported as 13% and the “% MORTALITY AFTER 24 HRS” value ([1]; 3%) is reported as 13%. For the same compound, the 1 hour knockdown (Aedes aegypti mosquitoes; 3%) was 53%, the mortality at 1 % (Aedes aegypti mosquitoes; Aedes aegypti, topical, 24 h, read-out: % MORTALITY AFTER 24 HRS, 1%) was 3% and the mortality at 1 % (Aedes aegypti mosquitoes; Aedes aegypti, topical, 24 h, read-out: % MORTALITY AFTER 24 HRS, single active, 1%) was 0%. The mortality at 3 % (Aedes aegypti mosquitoes; Aedes aegypti, topical, 24 h, read-out: % MORTALITY AFTER 24 HRS, single active, 3%) was 73%, the “inhibition of P450 activity” value (Cytochrome P450 enzyme; added to the assay) was “acted as inhibitors” and the “inhibition of P450 activity relative to PBO” value (Cytochrome P450 enzyme; perillaldehyde at 1% vs PBO at 2%) was “as potent an inhibitor of P450 as PBO at 2%”. For the same compound, the “inhibition of P450 activity relative to PBO” value (Cytochrome P450 enzyme; perillaldehyde at 10% vs PBO at 2%) was “a more potent inhibitor of P450 than PBO at 2%”, the “Vapor Pressure (@ 25° C.)” value [2] was 0.0463 mmHg and the “Solubility (in water @ 25° C.)” value ([2]; in water) was 160.7 µg/mL (≈ 1070 µM).
